Test results as given in US12679878B2, “CRF2 receptor agonists and their use in therapy” (SANOFI, priority 2020, dated 2026).
Starred links: 1 amine or outer side, 2 acyl side, 3 side chain; linkers in the order of their positions; H or OH if unused. Non-standard residues stand in square brackets, D forms with d. Residues, ends and D or L forms follow the SMILES beside them. Groups on a side chain read outwards from the residue. *: point of attachment. γGlu = O=C(O)[C@H](CCC(=O)[*:2])N[*:1]; Palmitoyl = CCCCCCCCCCCCCCCC(=O)*; Aib = CC(C)(N)C(=O)O

Key:
CRF1R receptor = biological target: T1, CRF1R receptor (Homo sapiens, UniProt P34998); test: cAMP activity at anti-target CRF1R, CHO-K1 cell line clone 2 (Example 19.10); format: cell-based; settings: CRF1R CHO-K1 clone 2; for EC50: 0% HSA, read-out: EC50 [nM] 0% HSA; for Emax: 100% = Sauvagine at 100 nM
T1 construct: host or cells: CHO-K1 clone 2
T1 sequence (P34998 24-415): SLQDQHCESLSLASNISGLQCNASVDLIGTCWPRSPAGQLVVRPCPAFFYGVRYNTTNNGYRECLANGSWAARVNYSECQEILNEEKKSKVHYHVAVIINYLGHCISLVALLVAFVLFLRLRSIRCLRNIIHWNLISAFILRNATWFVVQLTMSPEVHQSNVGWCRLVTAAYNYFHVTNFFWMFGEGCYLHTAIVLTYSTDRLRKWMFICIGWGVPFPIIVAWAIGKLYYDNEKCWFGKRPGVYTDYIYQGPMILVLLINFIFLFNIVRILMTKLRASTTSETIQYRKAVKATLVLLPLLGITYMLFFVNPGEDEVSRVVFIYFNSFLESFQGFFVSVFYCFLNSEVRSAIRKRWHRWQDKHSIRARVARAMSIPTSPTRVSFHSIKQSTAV
Method: The CRF1R-overexpression CHO-K1 cell line clone 2 was purchased from PerkinElmer.
Cells were grown in a 10 cm dish at 37° C./5% CO2 in medium (F12 (Hams)/10% FBS/400 μg/ml G418) to near confluence. At that stage, cells were harvested, resuspended to 10 million/mL in culture medium without G418 and with 10% DMSO. 1 mL vial aliquots were slowly frozen to -80° C. in isopropanol and then transferred in liquid nitrogen for storage. These vials were used to run the experiment following the procedure reported 10 in the previous paragraph, except for the compound used in the control well to define the 100% activation (Sauvagine at 100 nM)

human CRF2α receptor = biological target: T2, human CRF2α receptor (Homo sapiens, UniProt Q13324); test: cAMP agonism at human CRF2 α receptor in TeloHEAC cells (Example 7); format: cell-based; settings: cAMP HTRF, TeloHEAC cells stably expressing human CRF2 α, 0% HSA; read-out: EC50 [nM], 0% HSA
T2 construct: expressed in transfected cells; host or cells: TeloHEAC
T2 sequence (Q13324 1-411): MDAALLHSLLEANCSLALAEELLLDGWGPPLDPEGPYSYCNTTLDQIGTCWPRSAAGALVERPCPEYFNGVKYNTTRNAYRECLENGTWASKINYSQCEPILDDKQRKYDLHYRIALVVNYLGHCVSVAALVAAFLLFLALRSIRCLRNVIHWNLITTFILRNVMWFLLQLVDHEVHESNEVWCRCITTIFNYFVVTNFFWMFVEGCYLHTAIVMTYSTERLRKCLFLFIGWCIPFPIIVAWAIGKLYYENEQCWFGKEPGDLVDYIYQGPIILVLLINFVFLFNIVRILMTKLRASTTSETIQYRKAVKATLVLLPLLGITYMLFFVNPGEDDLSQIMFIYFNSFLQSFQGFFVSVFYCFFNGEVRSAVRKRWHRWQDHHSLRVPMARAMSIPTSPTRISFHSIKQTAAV
Outline: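 Percent activation was referenced to 1000 nM UCN2 (100%), and EC50 values taken as concentrations giving half of maximal response. The read-out was a homogeneous time-resolved fluorescence cAMP kit, fluorescence ratio 665/620 nm. Thawed cells (2000/well) saw compound for 30 min at RT in buffer with 2 mM IBMX and 0%/0.1% HSA.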

Row | EC50 (CRF1R receptor) [nM] | Emax (CRF1R receptor) [%] | EC50 (human CRF2α receptor) [nM] | SMILES
1 | > 100 | 0.1 | 0.09 | CCCCCCCCCCCCCCCC(=O)N[C@@H](CCC(=O)NCCCC[C@H](NC(=O)[C@H](CC(C)C)NC(=O)[C@H](CCCCN)NC(=O)[C@@H](NC(=O)[C@@H]1CCCN1C(=O)[C@H](NC(=O)[C@H](CC(=O)O)NC(=O)[C@H](CC(C)C)NC(=O)[C@H](CO)NC(=O)[C@H](CC(C)C)NC(=O)[C@@H](NC(=O)[C@@H](N)[C@@H](C)CC)C(C)C)C(C)C)[C@@H](C)O)C(=O)N[C@@H](CCCCN)C(=O)N[C@@H](CCCCN)C(=O)N[C@@H](CC(C)C)C(=O)N[C@@H](CC(C)C)C(=O)N[C@@H](CCCCN)C(=O)N[C@@H](CCC(N)=O)C(=O)N[C@@H](CCC(=O)O)C(=O)N[C@@H](CCCNC(=N)N)C(=O)N[C@@H](CCCCN)C(=O)N[C@@H](CCCNC(=N)N)C(=O)N[C@@H](CCCCN)C(=O)N[C@@H](CCC(=O)O)C(=O)N[C@@H](CCCNC(=N)N)C(=O)N[C@@H](CCC(=O)O)C(=O)N[C@@H](CCCCN)C(=O)N[C@@H](C)C(=O)N[C@@H](CCC(=O)O)C(=O)N[C@@H](CCCCN)C(=O)N[C@@H](CC(N)=O)C(=O)N[C@@H](C)C(=O)N[C@@H](CCCNC(=N)N)C(=O)N[C@H](C(=O)N[C@@H](CC(C)C)C(=O)N[C@@H](CCC(=O)O)C(=O)N[C@@H](CCCNC(=N)N)C(=O)N[C@H](C(N)=O)C(C)C)[C@@H](C)CC)C(=O)O [compound 25] (H-IVLSLD[dV]PTKLK([γGlu-Palmitoyl])KKLLKQERKRKEREKAEKNARILERV-NH2)
2 | > 100 | 0.6 | 0.01 | CCCCCCCCCCCCCCCC(=O)N[C@@H](CCC(=O)NCCCC[C@H](NC(=O)[C@H](CC(C)C)NC(=O)[C@H](CCCCN)NC(=O)[C@@H](NC(=O)[C@@H]1CCCN1C(=O)[C@H](NC(=O)[C@H](CC(=O)O)NC(=O)[C@H](CC(C)C)NC(=O)[C@H](CO)NC(=O)[C@H](CC(C)C)NC(=O)[C@@H](NC(=O)[C@@H](N)[C@@H](C)CC)C(C)C)C(C)C)[C@@H](C)O)C(=O)N[C@@H](CCCCN)C(=O)N[C@@H](CCCCN)C(=O)N[C@@H](CC(C)C)C(=O)N[C@@H](CC(C)C)C(=O)N[C@@H](CCCCN)C(=O)N[C@@H](CCC(N)=O)C(=O)N[C@@H](CCC(=O)O)C(=O)N[C@@H](CCCNC(=N)N)C(=O)N[C@@H](CCCCN)C(=O)N[C@@H](CCCNC(=N)N)C(=O)N[C@@H](CCCCN)C(=O)N[C@@H](CCC(=O)O)C(=O)N[C@@H](CCCNC(=N)N)C(=O)N[C@@H](CCC(=O)O)C(=O)NC(C)(C)C(=O)N[C@@H](C)C(=O)N[C@@H](CCC(=O)O)C(=O)N[C@@H](CCCCN)C(=O)N[C@@H](CC(N)=O)C(=O)N[C@@H](C)C(=O)N[C@@H](CCCNC(=N)N)C(=O)N[C@H](C(=O)N[C@@H](CC(C)C)C(=O)N[C@@H](CCC(=O)O)C(=O)N[C@@H](CCCNC(=N)N)C(=O)N[C@H](C(N)=O)C(C)C)[C@@H](C)CC)C(=O)O [compound 26] (H-IVLSLD[dV]PTKLK([γGlu-Palmitoyl])KKLLKQERKRKERE[Aib]AEKNARILERV-NH2; N-terminus assumed)
3 | > 100 | 34.2 | 0.01 | CCCCCCCCCCCCCCCC(=O)N[C@@H](CCC(=O)NCCCC[C@H](NC(=O)[C@H](CC(C)C)NC(=O)[C@H](CCCCN)NC(=O)[C@@H](NC(=O)[C@@H]1CCCN1C(=O)[C@H](NC(=O)[C@H](CC(=O)O)NC(=O)[C@H](CC(C)C)NC(=O)[C@H](CO)NC(=O)[C@H](CC(C)C)NC(=O)[C@@H](NC(=O)[C@@H](N)[C@@H](C)CC)C(C)C)C(C)C)[C@@H](C)O)C(=O)N[C@@H](CCCCN)C(=O)N[C@@H](CCCCN)C(=O)N[C@@H](CC(C)C)C(=O)N[C@@H](CC(C)C)C(=O)N[C@@H](CCCCN)C(=O)N[C@@H](CCC(N)=O)C(=O)N[C@@H](CCC(=O)O)C(=O)N[C@@H](CCCNC(=N)N)C(=O)N[C@@H](CCCCN)C(=O)N[C@@H](CCCNC(=N)N)C(=O)N[C@@H](CCCCN)C(=O)N[C@@H](CCC(=O)O)C(=O)N[C@@H](CCCNC(=N)N)C(=O)N[C@@H](CCC(=O)O)C(=O)N[C@@H](CCC(N)=O)C(=O)N[C@@H](C)C(=O)N[C@@H](CCC(=O)O)C(=O)N[C@@H](CCCCN)C(=O)N[C@@H](CC(N)=O)C(=O)N[C@@H](C)C(=O)N[C@@H](CCCNC(=N)N)C(=O)N[C@H](C(=O)N[C@@H](CC(C)C)C(=O)N[C@@H](CCC(=O)O)C(=O)N[C@@H](CCCNC(=N)N)C(=O)N[C@H](C(N)=O)C(C)C)[C@@H](C)CC)C(=O)O [compound 27] (H-IVLSLD[dV]PTKLK([γGlu-Palmitoyl])KKLLKQERKRKEREQAEKNARILERV-NH2; N-terminus assumed)
4 | > 100 | 8.4 | 0.14 | CCCCCCCCCCCCCCCC(=O)N[C@@H](CCC(=O)NCCCC[C@H](NC(=O)[C@H](CC(C)C)NC(=O)[C@H](CCCCN)NC(=O)[C@@H](NC(=O)[C@@H]1CCCN1C(=O)[C@H](NC(=O)[C@H](CC(=O)O)NC(=O)[C@H](CC(C)C)NC(=O)[C@H](CO)NC(=O)[C@H](CC(C)C)NC(=O)[C@@H](NC(=O)[C@@H](N)[C@@H](C)CC)C(C)C)C(C)C)[C@@H](C)O)C(=O)N[C@@H](CCCCN)C(=O)N[C@@H](CCCCN)C(=O)N[C@@H](CC(C)C)C(=O)N[C@@H](CC(C)C)C(=O)N[C@@H](CCCCN)C(=O)N[C@@H](CCC(N)=O)C(=O)N[C@@H](CCC(=O)O)C(=O)N[C@@H](CCCNC(=N)N)C(=O)N[C@@H](CCCCN)C(=O)N[C@@H](CCCNC(=N)N)C(=O)N[C@@H](CCCCN)C(=O)N[C@@H](CCC(=O)O)C(=O)N[C@@H](CCCNC(=N)N)C(=O)N[C@@H](CCC(=O)O)C(=O)N[C@@H](CCCCN)C(=O)N[C@@H](C)C(=O)N[C@@H](CCC(=O)O)C(=O)N[C@@H](CCCCN)C(=O)N[C@@H](C)C(=O)N[C@@H](C)C(=O)N[C@@H](CCCNC(=N)N)C(=O)N[C@H](C(=O)N[C@@H](CC(C)C)C(=O)N[C@@H](CCC(=O)O)C(=O)N[C@@H](CCCNC(=N)N)C(=O)N[C@H](C(N)=O)C(C)C)[C@@H](C)CC)C(=O)O [compound 28] (H-IVLSLD[dV]PTKLK([γGlu-Palmitoyl])KKLLKQERKRKEREKAEKAARILERV-NH2; N-terminus assumed)
5 | > 100 | 18.4 | 0.12 | CCCCCCCCCCCCCCCC(=O)N[C@@H](CCC(=O)NCCCC[C@H](NC(=O)[C@H](CC(C)C)NC(=O)[C@H](CCCCN)NC(=O)[C@@H](NC(=O)[C@@H]1CCCN1C(=O)[C@H](NC(=O)[C@H](CC(=O)O)NC(=O)[C@H](CC(C)C)NC(=O)[C@H](CO)NC(=O)[C@H](CC(C)C)NC(=O)[C@@H](NC(=O)[C@@H](N)[C@@H](C)CC)C(C)C)C(C)C)[C@@H](C)O)C(=O)N[C@@H](CCCCN)C(=O)N[C@@H](CCCCN)C(=O)N[C@@H](CC(C)C)C(=O)N[C@@H](CC(C)C)C(=O)N[C@@H](CCCCN)C(=O)N[C@@H](CCC(N)=O)C(=O)N[C@@H](CCC(=O)O)C(=O)N[C@@H](CCCNC(=N)N)C(=O)N[C@@H](CCCCN)C(=O)N[C@@H](CCCNC(=N)N)C(=O)N[C@@H](CCCCN)C(=O)N[C@@H](CCC(=O)O)C(=O)N[C@@H](CCCNC(=N)N)C(=O)N[C@@H](CCC(=O)O)C(=O)NC(C)(C)C(=O)N[C@@H](C)C(=O)N[C@@H](CCC(=O)O)C(=O)N[C@@H](CCCCN)C(=O)N[C@@H](C)C(=O)N[C@@H](C)C(=O)N[C@@H](CCCNC(=N)N)C(=O)N[C@H](C(=O)N[C@@H](CC(C)C)C(=O)N[C@@H](CCC(=O)O)C(=O)N[C@@H](CCCNC(=N)N)C(=O)N[C@H](C(N)=O)C(C)C)[C@@H](C)CC)C(=O)O [compound 29] (H-IVLSLD[dV]PTKLK([γGlu-Palmitoyl])KKLLKQERKRKERE[Aib]AEKAARILERV-NH2; N-terminus assumed)
